Source: US4607047A, “N-(allyl-2-pyrrolidinylmethyl) 2-methoxy-4-amino-5-methylsulfamoyl benzamide anti platelets aggregation agent” (Societe d'Etudes Scientifiques et Industrielles de …, priority 1983, dated 1986)
pIC50: −log10 of the molar value.

Columns and labels:
[1] = tested on: central dopaminergic receptors; test: action on central dopaminergic receptors; apomorphine climbing and stereotypies; assay type: in vivo, rodents
Description: Although under those conditions the pathogenetic role of platelet dysfunction has not been definitively established, various medicaments which are assumed to act by interfering with the platelet function have been widely used. Reference may be made for example to aspirin, dipyridamole and sulphinpyrazone. […] It can be said therefore that the undesirable neurological effects are very limited with that medicament.

platelets [2] = test: platelet aggregation caused by adenosine phosphate; assay type: cell-based; details: in vitro, rabbits
Experimental: (§1) The following pharmacological results illustrate the activity of the compound on platelet aggregation, the potentiation of such aggregation, the uptake of serotonin (the chemical name for which is 5-hydroxytryptamine) by the platelets and the release reaction of such platelets. This study was carried out on rabbits:
An inhibiting effect on the aggregation of platelets, caused by adenosine phosphate is observed.

platelets [3] = test: potentiation (induced by 5-hydroxytryptamine) of platelet aggregation caused by adenosinephosphate; assay type: cell-based, rabbits; details: rabbit platelets
Experimental: as §1
It is 63 times less powerful than METHYSERGIDE as a 5-hydroxytryptamine antagonist.

platelets [4] = test: potentiation (induced by adrenaline) of platelet aggregation caused by adenosinephosphate; assay type: cell-based, rabbits; details: rabbit platelets
Experimental: as §1
It is 20 times less powerful than PHENTOLAMINE as an adrenaline antagonist.

human platelets [5] = test: release of marked 5-hydroxytryptamine induced by collagen, human platelets; assay type: cell-based; details: human platelets in vitro
Experimental: (§2) All those results agreeing, the following study was carried on human platelets in vitro, before proceeding to therapeutic applications. It relates to the effects of the compound according to the invention, in regard to aggregation induced by thrombin, collagen, adrenaline, and 5-hydroxytryptamine, and with regard to the release of carbon 14-marked 5-hydroxytryptamine, by thrombin, adrenaline and collagen.

vascular thrombus = test: in vivo formation of a caused vascular thrombus; details: animals
platelets [6] = test: release of carbon 14-marked 5-hydroxytryptamine induced by collagen; assay type: cell-based, rabbits; details: rabbit platelets
Experimental: as §1
(§3) The compound counteracts the action of collagen on the platelets.
The compound of the invention is 13 times more powerful than aspirin, which is well known for inhibiting the platelet release reaction.

human platelets [7] = test: aggregation induced by adrenaline, human platelets in vitro; assay type: cell-based
Experimental: as §2

human platelets [8] = test: aggregation induced by collagen, human platelets in vitro; assay type: cell-based
Experimental: as §2

human platelets [9] = test: release of carbon 14-marked 5-hydroxytryptamine induced by thrombin, human platelets; assay type: cell-based; details: human platelets in vitro
Experimental: as §2

platelets [10] = test: uptake of carbon 14-marked 5-hydroxytryptamine by platelets; assay type: cell-based; details: Oryctolagus cuniculus, Platelet; rabbit platelets
Description: (§4) The following pharmacological results illustrate the activity of the compound on platelet aggregation, the potentiation of such aggregation, the uptake of serotonin (the chemical name for which is 5-hydroxytryptamine) by the platelets and the release reaction of such platelets.

human platelets [11] = test: aggregation induced by thrombin, human platelets in vitro; assay type: cell-based; details: thrombin 3.3 units/ml PRP
Experimental: as §2

human platelets [12] = test: aggregation induced by 5-hydroxytryptamine, human platelets in vitro; assay type: cell-based
Experimental: as §2

platelets [13] = test: platelet aggregation induced by collagen; assay type: cell-based, rabbits; details: rabbit platelets
Experimental: as §1, §3
a. prolongation of the typical latency phase which precedes aggregation of the platelets induced by collagen,
b. inhibition of the aggregation effect induced by collagen, and […]

human platelets [14] = test: platelet release reaction induced by adrenaline, human platelets; assay type: cell-based; details: human platelets in vitro; witnessed by inhibition of second phase of aggregation
Experimental: as §2

rabbit platelets = test: release of carbon 14-marked 5-hydroxytryptamine induced by adrenaline; assay type: cell-based; details: Oryctolagus cuniculus, Platelet, read-out: IC50, inhibition of release of carbon 14-marked 5-hydroxytryptamine induced by adrenaline
Description: as §4

alpha-2 receptors = target: T1, alpha-2 receptors (Oryctolagus cuniculus, UniProt Q5ZQK3); test: potentiation (induced by CLONIDINE) of platelet aggregation caused by adenosinephosphate; assay type: cell-based, rabbits; details: rabbit platelets
T1 construct: potentiation (induced by CLONIDINE) of platelet aggregation caused by adenosinephosphate; endogenous in cells; host or cells: rabbit blood platelets
T1 sequence (Q5ZQK3 1-451): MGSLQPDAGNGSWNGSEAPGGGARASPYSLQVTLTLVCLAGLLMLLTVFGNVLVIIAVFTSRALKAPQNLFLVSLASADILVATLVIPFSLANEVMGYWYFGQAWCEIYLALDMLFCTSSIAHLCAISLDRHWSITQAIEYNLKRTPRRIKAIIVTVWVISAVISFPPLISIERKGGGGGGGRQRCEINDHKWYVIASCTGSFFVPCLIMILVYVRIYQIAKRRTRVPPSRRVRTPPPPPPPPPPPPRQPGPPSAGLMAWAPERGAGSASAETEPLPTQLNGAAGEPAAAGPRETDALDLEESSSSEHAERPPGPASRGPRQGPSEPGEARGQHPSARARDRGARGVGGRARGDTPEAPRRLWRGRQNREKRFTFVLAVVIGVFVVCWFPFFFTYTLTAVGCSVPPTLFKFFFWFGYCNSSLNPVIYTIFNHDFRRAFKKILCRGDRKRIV
Description: as §4

[15] = target: T2, alpha-2 receptors (Oryctolagus cuniculus); test: as above; assay type: cell-based, rabbits; details: rabbit platelets; read-out: IC50, anti-adrenergic effect (potentiation induced by CLONIDINE of platelet aggregation caused by adenosinephosphate)
T2 construct: potentiation (induced by CLONIDINE) of platelet aggregation caused by adenosinephosphate; endogenous in cells; host or cells: rabbit blood platelets
Description: as §4

human platelets [16] = test: uptake of carbon 14-marked 5-hydroxytryptamine, human platelets in vitro; assay type: cell-based

C=CCN1CCCC1CNC(=O)c1cc(S(=O)(=O)NC)c(N)cc1OC (stereo not shown) [the compound, N-(1-allyl-2-pyrrolidinylmethyl) 2-methoxy 4-amino 5-methylsulphamoyl benzamide]
action on the central dopaminergic receptors ([1]; animals): only a very weak action | doses to counteract apomorphine effects (climbing and stereotypies) ([1]; rodents): high doses are required | platelet aggregation caused by adenosine phosphate (platelets [2]): inhibits | pIC50 (platelets [3]; Oryctolagus cuniculus, Platelet, read-out: IC50, inhibition of potentiation (induced by 5-hydroxytryptamine) of platelet aggregation caused by adenosinephosphate): 4.72 | times less powerful than METHYSERGIDE as a 5-hydroxytryptamine antagonist (platelets [3]): 63 times | pIC50 (platelets [4]; Oryctolagus cuniculus, Platelet, read-out: IC50, inhibition of potentiation (induced by adrenaline) of platelet aggregation caused by adenosinephosphate): 5.00 | times less powerful than PHENTOLAMINE as an adrenaline antagonist (platelets [4]): 20 times | release of marked 5-hydroxytryptamine induced by collagen (human platelets [5]): inhibits | conditions of formation of a caused vascular thrombus (anti-aggregating effect) (vascular thrombus): modifies the conditions of formation | pIC50 (platelets [6]; Oryctolagus cuniculus, Platelet, read-out: IC50, inhibition of release of carbon 14-marked 5-hydroxytryptamine induced by collagen): 5.74 | times more powerful than aspirin, platelet release reaction (platelets [6]; collagen-induced release): 13 times | first and second phases of aggregation of platelets induced by adrenaline (human platelets [7]): inhibits both | aggregation of platelets induced by collagen (human platelets [8]): inhibits | release of carbon 14-marked 5-hydroxytryptamine induced by thrombin (human platelets [9]): inhibits | pIC50 (platelets [10]): < 4.00 | primary aggregation of platelets induced by thrombin (human platelets [11]): does not influence | second phase of aggregation induced by thrombin (human platelets [11]): inhibits | aggregation of platelets induced by 5-hydroxytryptamine (human platelets [12]): inhibits | aggregation effect induced by collagen (platelets [13]): inhibition | latency phase preceding aggregation of platelets induced by collagen (platelets [13]): prolongation | release reaction of the platelets induced by adrenaline (human platelets [14]): inhibits | pIC50 (rabbit platelets): 4.00 | activity relative to MIANSERINE as an alpha-2 antagonist (alpha-2 receptors): twice as active | pIC50 [15]: 4.53 | uptake of carbon 14-marked 5-hydroxytryptamine by platelets (human platelets [16]): does not influence
